The results in this text go back to US20240150396A1 (The Texas A&M University System, priority 2021, published 2024).

In series [1] the test system is trypanosomes (T. b. brucei, T. cruzi). The experiment in a line: Anti-trypanosomal activity, culture not stated. Format: cell-based. The note with it: culture (T. b. brucei PCF/BSF or T. cruzi-infected cardiomyoblasts) not stated.
Series [2] can be described thus: Detection of aldehyde content using phenylhydrazine. Format: physicochemical. As to conditions: aqueous buffer, 1 mM phenylhydrazine, 2 hours. As to the method: Detection of Aldehyde Content Using Phenylhydrazine. In a 96-well clear microplate, compounds 52 and 36 in DMSO solutions, or pure DMSO as a control, were diluted into the above NMR buffer without addition of DTT to make 250 μL-samples, each containing 0.2 mM of compounds and 10% DMSO (v/v). Upon addition of 1M phenylhydrazine (0.25 μL), the formation of phenylhydrazone in these wells were continuously monitored for 2 hours by measuring UV absorbance at the maximal wavelength of 282 nm.

For series [3] the following is noted: mice, intravenous administration, data not shown.
Series [4] can be described thus: Solubility of cruzain inhibitors in 10% DMSO, light scattering. Format: physicochemical. Here is the method: Synthetic PVHIs such as 5-16 and 22-24 at final concentrations of 1-200 μM were added to 0.25 mL solutions of 10% DMSO (v/v) in clear 96-well Greiner plates, and absorbance at 620 nm was measured using a BioTek M2 Synergy plate reader at t=0 and 120 min to evaluate increased light scattering and precipitated inhibitor.

“Also recorded” adds a separate entry of the source. Like-named read-outs stand apart in the source and are kept apart here. Some results are limits rather than exact numbers.

As for `CN1CCN(C(=O)NC(Cc2ccccc2)C(=O)NC2Cc3ccccc3OC2O)CC1` (centres unmarked) [Compound 36], the concentration giving a half-maximal response (EC50) in series [1] was 0.5 to 29 µM. Further, the “free aldehyde by phenylhydrazine treatment” value in series [2] is reported as “no free aldehyde could be detected; also recorded: remained intact after 2 hours”. Also, in series [3], the half-life result is reported as “short half-life”.
`C[n+]1ccccc1/C=C/[C@H](CCc1ccccc1)NC(=O)[C@H](Cc1ccccc1)NC(=O)OCc1ccccc1` [Compound 15, 2-((S,E)-3-((S)-2-(((Benzyloxy)carbonyl)amino)-3-phenylpropanamido)-5-phenylpent-1-en-1-yl)-1-methylpyridin-1-ium]: the solubility in series [4] was at least 50 µM.
As to `C[n+]1ccccc1/C=C/[C@H](Cc1ccccc1)NC(=O)[C@H](Cc1ccccc1)NC(=O)OCc1ccccc1.[I-]` [Compound 12, 2-((S,E)-3-((S)-2-(((Benzyloxy)carbonyl)amino)-3-phenylpropanamido)-4-phenylbut-1-en-1-yl)-1-methylpyridin-1-ium Iodide], the solubility in series [4] (in 10% DMSO) was at least 50 µM.
